In patent US20090270363A1, “2-Aryl- and 2-Heteroarylthiazolyl Compounds, Methods for Their Preparation and Use Thereof” (Wyeth, priority 2008, published 2009):

Key:
[1] = system: Xenografts of a Human Breast Carcinoma Cell Line (MDA-MB-361); assay: Tumor xenograft study versus Herceptin (Table 2); format: in vivo; settings: 40 mg/kg/dose PO, days 1 through 20
Protocol: (§1) Selected fused bicyclic 2-aryl- or 2-heteroarylthiazolyl compounds of formula I were tested for their activity in a securin parental cell line (HCT116 FB) and a securin knockout (KO) cell line. […] The in-vivo activity of selected fused bicyclic 2-aryl- or 2-heteroarylthiazolyl compounds of formula I was studied in cells growing as xenografts in athymic (nude) mice. The effect of Examples 164, 166 and 167 was studied in xenografts of a human breast carcinoma cell line (MDA-MB-361).
(§2) In-vivo Activity in Tumor Xenografts. […] The fused bicyclic 2-arylthiazolyl compounds were formulated using 0.5% Methocel™ (methylcellulose) and 0.4% Tween 80™ (polysorbate-80 and oleic acid) and administered daily orally (PO), by gavage or by syringe. Tumor mass [(length×width^2)/2] was determined every 7 days. Inhibition of tumor growth was calculated relative to conventional (vehicle treated) controls.

[2] = system: HCT116 cells (Securin+/+, securin parental, HCT116 FB); assay: Growth inhibition (sulforhodamine B, 5 days) of securin parental cells; format: cell-based; settings: Homo sapiens, HCT-116, 120 h, SRB
Protocol: (§3) IC50 analysis was performed for selected fused bicyclic 2-aryl or 2-heteroarylthiazolyl compounds that were tested on HCT116 cells and Securin “knock out” cell lines.
(§4) Cell Culture—HCT116 and securin “knock out” cells. HCT116 and securin “knock out” cells (D8 and F3) were grown in RPMI+5% fetal bovine serum and gentamycin. They were maintained in a humidified 37° C. incubator with 5% CO2. Since the securin “knock out” cells have active chromosomal instability, cells were used at a low passage number of 2-13 passages. At or before passage 13 a new vial of cells was thawed and used for the screen. Cell seeding—HCT116 cells and securin “knock out” cells were trypsinized and suspended in RPMI+5% FBS at a density of 27,000 cells/mL. HCT116 and securin “knock out” cells were seeded separately in wells of a 96-well plate (Falcon Cat # 35-3872) at a cell density of 4000 cells per well. Cells were seeded in 150 μL of RPMI media containing 5% FBS and gentamycin. Cell seeding was performed under aseptic conditions. Cells were allowed to attach and grow overnight in a humidified 37° C. incubator.
(§5) Compound Dilution and Dispensation. A series of stock solutions, 10 mg/mL of fused bicyclic 2-aryl- or 2-heteroarylthiazolyl compounds to be tested, were brought to room temperature. The compounds were diluted 1:50 in RPMI+5% FBS (Highest concentration 200 μg/mL). The compounds were then serially diluted 1:3 across a deep-well titration plate resulting in final concentrations in the plate of 200, 66.7, 22.2, 7.4, 2.4, 0.8, 0.27, 0.091, 0.03, 0.01, and 0.0034 μg/mL with one well left without a compound. 50 μL of this dilution series was added to the 150 μL of cells to result in a final concentration of compound in with the cells of 50, 16.6, 5.5, 1.8, 0.6, 0.2, 0.068, 0.023, 0.0076, 0.0025, and 0.00084 μg/mL. The dilution and addition of compounds to the plates is performed using a Multimek 96 Robot (Beckman Coulter).
(§6) Incubation and analysis. After dosing, the cells in the 96 well plates were returned to the humidified 37° C. incubator. The compounds remained on the cells for 5 days. After 5 days, the cells were fixed to the plates with the addition of 50 μL of 50% (vol/vol) Trichloro Acetic Acid ([…]). The cells were fixed at 4° C. for 1 hour. The plates were washed 5 times in distilled water and allowed to dry. The cells were stained with 0.4% sulforhodamine B (Sigma) in 1% acetic acid. The cells were stained for 15 minutes at room temperature. The plates were then washed 3 times in 1% acetic acid. The plates were dried and the dye was solubilized in 10 mM Tris at pH 8.0. The plates were read on the Absorbence 560 setting on a Victor^2 V Model 1420 Multilabel HTS counter (Perkin Elmer).
(§7) Analysis of Results—IC50 data. Absorbence data was read off of the Victor and was converted to a percentage of the control (untreated) values. IC50 values were graphed and the point at which a 50% inhibition of the control level was determined. […] If the model was not able to determine an IC50, the IC50 was assigned to the lowest concentration that gives a 50% or greater decrease in absorbence compared to control levels. If the calculated IC50 value for a cell line exceeds the top concentration for the assay (typically 50 μg/mL), the assay was scored as >50.
(§8) Selectivity Ratio. The Selectivity Ratio is the ratio of IC50s between the parent cell line and the knock out cell line and is always a positive number and is typically an integer.

[3] = system: securin "knock out" cells D8 (Securin-/-); assay: Growth inhibition (sulforhodamine B, 5 days) of securin knock out cells D8; format: cell-based; settings: for IC50: 120 h, securin knock out D8 cells, 5 days, SRB; for Selectivity Ratio D8: IC50 HCT116 / IC50 securin KO D8
Protocol: as §3, §4, §5, §6, §7, §8

[4] = system: securin "knock out" cells F3 (Securin-/-); assay: Growth inhibition (sulforhodamine B, 5 days) of securin knock out cells F3; format: cell-based; settings: for IC50: 120 h, securin knock out F3 cells, 5 days, SRB; for Selectivity Ratio F3: IC50 HCT116 / IC50 securin KO F3
Protocol: as §3, §4, §5, §6, §7, §8

[5] = system: Xenografts of a Human Breast Carcinoma Cell Line (MDA-MB-361); assay: Tumor xenograft study versus Vincristine (Table 3); format: in vivo
Protocol: as §1, §2
The effectiveness of Examples 164, 166 and 167 versus Vincristine at controlling tumor growth was studied and the results are summarized in Table 3 and FIG. 2.

[6] = 100 mg/kg/dose PO, BID, days 2 through 21
[7] = 100 mg/kg/dose PO, BID, days 2 through 21, BID vehicle group listed
[8] = 150 mg/kg/dose PO, days 2 through 21
[9] = 0.8 mg/kg/dose IP, days 2, 5 and 10

SMILES	IC50 [2] [µM]	IC50 [3] [µM]	Selectivity Ratio D8 [3]	IC50 [4] [µM]	Selectivity Ratio F3 [4]	also measured
CCOc1cc2ncc(C#N)c(Nc3ccc(F)c(Cl)c3)c2cc1NC(=O)/C=C/CN(C)C [EKB-569]	–	–	–	–	–	% T/C Day 7 [1]: 66%; % T/C Day 14 [1]: 80%; % T/C Day 21 [1]: 78%; Relative Tumor Growth Day 7 [1]: 1.28; Relative Tumor Growth Day 14 [1]: 2.57; Relative Tumor Growth Day 21 [1]: 8.24; S/T = # of Survivors/# of Treated on Day +21 [1]: 10/10
CN(C)c1ccc(-c2nc3c(s2)C(O)CC3)cc1 (stereo not drawn) [Example 5, 2-[4-(dimethylamino)phenyl]-5,6-dihydro-4H-cyclopenta[d][1,3]thiazol-6-ol]	54.3	1.3	43	1.8	30	–
CN(C)c1ccc(-c2nc3c(s2)[C@H](O)CC3)cc1 [Example 6, (6R)-2-[4-(dimethylamino)phenyl]-5,6-dihydro-4H-cyclopenta[d][1,3]thiazol-6-ol]	43.4	0.46	95	0.84	52	–
CN(C)c1cc(F)c(-c2nc3c(s2)C(O)CCC3)c(F)c1 (stereo not drawn) [Example 25, 2-[4-(dimethylamino)-2,6-difluorophenyl]-4,5,6,7-tetrahydro-1,3-benzothiazol-7-ol]	≥ 161	2.6	62	6.7	24	–
Cc1cc(N(C)C)ccc1-c1nc2c(s1)C(O)CCC2 (stereo not drawn) [Example 45, 2-[4-(dimethylamino)-2-methylphenyl]-4,5,6,7-tetrahydro-1,3-benzothiazol-7-ol]	133	0.54	245	1.1	121	selectivity ratios (IC50 HCT116 FB/IC50 securin KO) [3]: high selectivity ratios
CCc1cc(N(C)C)ccc1-c1nc2c(s1)C(O)CCC2 (stereo not drawn) [Example 47, 2-[4-(dimethylamino)-2-ethylphenyl]-4,5,6,7-tetrahydro-1,3-benzothiazol-7-ol]	76.4	0.43	179	3	26	–
COC(=O)c1cc(N(C)C)ccc1-c1nc2c(s1)C(O)CCC2 (stereo not drawn) [Example 55, methyl 5-(dimethylamino)-2-(7-hydroxy-4,5,6,7-tetrahydro-1,3-benzothiazol-2-yl)benzoate]	105	0.65	160	1.2	90	–
CN(C)c1ccc(-c2nc3c(s2)C(O)CCC3)c(CO)c1 (stereo not drawn) [Example 60, 2-[4-(dimethylamino)-2-(hydroxymethyl)phenyl]-4,5,6,7-tetrahydro-1,3-benzothiazol-7-ol]	97.5	0.091	1076	0.12	821	–
CN(C)c1ccc(-c2nc3c(s2)C(O)CCC3)c(C=O)c1 (stereo not drawn) [Example 67]	31	0.059	525	0.15	206	–
CN(C)c1ccc(-c2nc3c(s2)C(O)CCC3)c(C(C)(C)O)c1 (stereo not drawn) [Example 72, 2-[4-(dimethylamino)-2-(1-hydroxy-1-methylethyl)phenyl]-4,5,6,7-tetrahydro-1,3-benzothiazol-7-ol]	54	1	52	2	27	–
CC(O)c1cc(N(C)C)ccc1-c1nc2c(s1)C(O)CCC2 (stereo not drawn) [Example 73, 2-[4-(dimethylamino)-2-(1-hydroxyethyl)phenyl]-4,5,6,7-tetrahydro-1,3-benzothiazol-7-ol]	99.5	0.44	226	0.79	126	–
CC(=O)c1cc(N(C)C)ccc1-c1nc2c(s1)C(O)CCC2 (stereo not drawn) [Example 74, 1-[5-(dimethylamino)-2-(7-hydroxy-4,5,6,7-tetrahydro-1,3-benzothiazol-2-yl)phenyl]ethanone]	100	0.15	650	0.18	558	–
CC(=O)c1c(-c2nc3c(s2)C(O)CCC3)ccc(N(C)C)c1Br (stereo not drawn) [Example 81, 1-[2-bromo-3-(dimethylamino)-6-(7-hydroxy-4,5,6,7-tetrahydro-1,3-benzothiazol-2-yl)phenyl]ethanone]	58.9	0.13	459	0.35	170	–
N#Cc1cc(N2CCCC2)ccc1-c1nc2c(s1)C(O)CCC2 (stereo not drawn) [Example 85, 2-(7-hydroxy-4,5,6,7-tetrahydro-1,3-benzothiazol-2-yl)-5-pyrrolidin-1-ylbenzonitrile]	48.4	0.19	253	0.31	159	–
CCOc1cc2ncc(C#N)c(Nc3ccc(OCc4ccccn4)c(Cl)c3)c2cc1NC(=O)/C=C/CN(C)C [HKI-272, reference compound]	–	–	–	–	–	% T/C Day 7 [1]: 62%; % T/C Day 14 [1]: 89%; % T/C Day 21 [1]: 76%; Relative Tumor Growth Day 7 [1]: 1.19; Relative Tumor Growth Day 14 [1]: 2.86; Relative Tumor Growth Day 21 [1]: 8.03; S/T = # of Survivors/# of Treated on Day +21 [1]: 10/10
COc1cc(Nc2c(C#N)cnc3cc(OCCCN4CCN(C)CC4)c(OC)cc23)c(Cl)cc1Cl [SKI-606 20]	–	–	–	–	–	Relative Tumor Growth Day 8 [5, 6]: 1.97; Relative Tumor Growth Day 15 [5, 6]: 2.44; Relative Tumor Growth Day 22 [5, 6]: 3.91; Relative Tumor Growth Day 29 [5, 6]: 5.73; Relative Tumor Growth Day 36 [5, 6]: 10.26; S/T = # of Survivors/# of Treated on Day +36 [5, 6]: 8/10; % T/C Day 8 [5, 7]: 52%; % T/C Day 15 [5, 7]: 27%; % T/C Day 22 [5, 7]: 18%; % T/C Day 8 [5, 8]: 40%; % T/C Day 15 [5, 8]: 22%; % T/C Day 22 [5, 8]: 16%; Relative Tumor Growth Day 8 [5, 8]: 2.09; Relative Tumor Growth Day 15 [5, 8]: 2.77; Relative Tumor Growth Day 22 [5, 8]: 3.62; Relative Tumor Growth Day 29 [5, 8]: 7.22; Relative Tumor Growth Day 36 [5, 8]: 10.19; S/T = # of Survivors/# of Treated on Day +36 [5, 8]: 10/10
CC[C@]1(O)C[C@H]2CN(CCc3c([nH]c4ccccc34)[C@@](C(=O)OC)(c3cc4c(cc3OC)N(C=O)[C@H]3[C@@](O)(C(=O)OC)[C@H](OC(C)=O)[C@]5(CC)C=CCN6CC[C@]43[C@@H]65)C2)C1 [Vincristine, reference compound]	–	–	–	–	–	% T/C Day 8 [5, 9]: 33%; % T/C Day 15 [5, 9]: 23%; % T/C Day 22 [5, 9]: 30%; Relative Tumor Growth Day 8 [5, 9]: 1.75; Relative Tumor Growth Day 15 [5, 9]: 2.84; Relative Tumor Growth Day 22 [5, 9]: 6.71; Relative Tumor Growth Day 29 [5, 9]: 11.47
